Measured values: the supplement of paper PMC13380429

Experiments:
Conditions in all cases: 72 h
[1] = tested on: Caco-2; assay: drug sensitivity score (DSS) for viability; higher = more toxic; extreme values may be limits of the assay
[2] = tested on: Caco-2; assay: relative viability EC50 (midpoint between 100% and the lowest measured viability); higher = less toxic
[3] = tested on: Caco-2; assay: cell viability relative to DMSO; higher = less toxic
[4] = tested on: HepG2; assay: drug sensitivity score (DSS) for viability; higher = more toxic; extreme values may be limits of the assay
[5] = tested on: Vero E6; assay: as above
[6] = tested on: Calu-3; assay: as above
[7] = tested on: Vero E6; assay: relative viability EC50 (midpoint between 100% and the lowest measured viability); higher = less toxic
[8] = tested on: Calu-3; assay: as above
[9] = tested on: HepG2; assay: cell viability relative to DMSO; higher = less toxic
[10] = tested on: Vero E6; assay: as above
[11] = tested on: Calu-3; assay: as above
[12] = tested on: U2OS; assay: drug sensitivity score (DSS) for viability; higher = more toxic; extreme values may be limits of the assay
[13] = tested on: U2OS; assay: cell viability relative to DMSO; higher = less toxic
[14] = tested on: U2OS; assay: relative viability EC50 (midpoint between 100% and the lowest measured viability); higher = less toxic

| SMILES | drug sensitivity score [1] | relative viability EC50 [2] [µM] | cell viability ([3]; 1 nM) [%] | cell viability ([3]; 10 nM) [%] | cell viability ([3]; 100 nM) [%] | cell viability ([3]; 1000 nM) [%] | cell viability ([3]; 10000 nM) [%] | drug sensitivity score [4] | drug sensitivity score [5] | drug sensitivity score [6] | relative viability EC50 [7] [µM] | relative viability EC50 [8] [µM] | cell viability ([9]; 1 nM) [%] | cell viability ([9]; 10 nM) [%] | cell viability ([9]; 100 nM) [%] | cell viability ([9]; 1000 nM) [%] | cell viability ([9]; 10000 nM) [%] | cell viability ([10]; 1 nM) [%] | cell viability ([10]; 10 nM) [%] | cell viability ([10]; 100 nM) [%] | cell viability ([10]; 1000 nM) [%] | cell viability ([10]; 10000 nM) [%] | cell viability ([11]; 1 nM) [%] | cell viability ([11]; 10 nM) [%] | cell viability ([11]; 100 nM) [%] | cell viability ([11]; 1000 nM) [%] | cell viability ([11]; 10000 nM) [%] | drug sensitivity score [12] | cell viability ([13]; 1 nM) [%] | cell viability ([13]; 10 nM) [%] | cell viability ([13]; 100 nM) [%] | cell viability ([13]; 1000 nM) [%] | cell viability ([13]; 10000 nM) [%] | relative viability EC50 [14] [µM] |
| --- | --- | --- | --- | --- | --- | --- | --- | --- | --- | --- | --- | --- | --- | --- | --- | --- | --- | --- | --- | --- | --- | --- | --- | --- | --- | --- | --- | --- | --- | --- | --- | --- | --- | --- |
| COc1ccccc1OCC(O)COC(N)=O (stereo not drawn) [methocarbamol] | 0 | > 10 | 102 | 98.4 | 98.3 | 103 | 100 | – | – | – | – | – | – | – | – | – | – | – | – | – | – | – | – | – | – | – | – | – | – | – | – | – | – | – |
| O=C1NC(=O)c2cc(Nc3ccccc3)c(Nc3ccccc3)cc21 | 0.3 | > 10 | 92.3 | 101 | 91.7 | 102 | 82.5 | 2.2 | 0.3 | 0 | > 10 | > 10 | 109 | 106 | 105 | 100 | 56.4 | 96.3 | 99.2 | 98.6 | 97.4 | 86.3 | 108 | 96.9 | 106 | 98.5 | 89.3 | – | – | – | – | – | – | – |
| Cc1ccc(-c2nn(C(C)(C)C)c3ncnc(N)c23)cc1 [PP-1] | 3.4 | – | 102 | 96.2 | 103 | 91.5 | 59.7 | 2.3 | 2.3 | 4.5 | 3.66 | 1.94 | 106 | 91.8 | 92.8 | 89.3 | 69 | 107 | 104 | 103 | 105 | 48.7 | 85.9 | 96.9 | 94 | 91.2 | 43.9 | 3.8 | 100 | 94.8 | 104 | 90.9 | 55 | – |
| O=C(/C=C/c1ccc(O)c(O)c1)c1ccc(O)cc1O [butein] | 3.2 | – | 95.5 | 103 | 101 | 92 | 61.9 | 3.2 | 0 | 0 | > 10 | > 10 | 99.3 | 103 | 104 | 93.4 | 58.4 | 103 | 101 | 102 | 99.6 | 101 | 100 | 103 | 97.2 | 112 | 92.7 | 1.4 | 93.8 | 101 | 94.9 | 96.9 | 75.9 | > 10 |
| CC(C)[C@H]1CC[C@H](C(=O)N[C@H](Cc2ccccc2)C(=O)O)CC1 [nateglinide] | 0 | > 10 | 92.7 | 95.6 | 105 | 106 | 96.7 | – | 0 | – | > 10 | – | – | – | – | – | – | 99.7 | 97 | 92.9 | 93.8 | 94.1 | – | – | – | – | – | – | – | – | – | – | – | – |
| CN1CCN(c2cccc(Nc3nc4c(-c5ccc(S(C)(=O)=O)cc5)cccn4n3)c2)CC1 | 0 | > 10 | 78.9 | 95.2 | 95.1 | 93.1 | 91 | 3.6 | 1.6 | 0 | – | > 10 | 100 | 95.9 | 94.1 | 84.8 | 58.9 | 96.4 | 95.1 | 94.8 | 96.3 | 73.6 | 97.9 | 99.4 | 91.8 | 125 | 136 | 2.1 | 96.1 | 102 | 94.8 | 95.8 | 68.9 | – |
| N#Cc1ccc2[nH]cc(CCCCN3CCN(c4ccc5oc(C(N)=O)cc5c4)CC3)c2c1 [vilazodone] | 0.3 | > 10 | 96.6 | 106 | 104 | 101 | 83 | 2.2 | 2 | 0 | – | > 10 | 107 | 99.9 | 99.5 | 95.9 | 66.4 | 92.7 | 99.6 | 95.3 | 91.2 | 71.6 | 87.5 | 88.7 | 74.5 | 93.6 | 86.6 | 0 | 99.4 | 108 | 97.7 | 101 | 92 | > 10 |
